Test results reported in ChEMBL document CHEMBL3044601, “Movento®, an innovative ambimobile insecticide for sucking insect pest control in agriculture: Biological profile and field performance” (Crop Prot, 2009).
Converted amounts (≈) assume the structure as drawn.

Experiments:
Bemisia tabaci [1] = experiment: Insecticidal activity against second instar nymph of organophosphates-resistant Bemisia tabaci ISR-02 (sweet potato whitefly) in cotton plant leaf after 10 days by leaf-dip bioassay; type: functional; conditions: ISR-02, 240 h
Myzus persicae [2] = experiment: Insecticidal activity against third-instar nymph of carbamates, pyrethroids-resistant Myzus persicae F04-01 (green peach aphid) in Brassica oleracea leaf disc after 3 days by leaf-dip bioassay; type: functional; conditions: F04-01, foliar, 72 h
Bemisia tabaci [3] = experiment: Insecticidal activity against second instar nymph of organophosphates-resistant Bemisia tabaci ESP-00 (sweet potato whitefly) in cotton plant leaf after 10 days by leaf-dip bioassay; type: functional; conditions: ESP-00, 240 h
Bemisia tabaci [4] = experiment: Insecticidal activity against second instar nymph of Bemisia tabaci SUD-S (sweet potato whitefly) in cotton plant leaf after 10 days by leaf-dip bioassay; type: functional; conditions: 240 h
[5] = Lipophilicity, log P of the compound; type: physicochemical; conditions: octanol/water
Myzus persicae [6] = experiment: Insecticidal activity against first instar nymph of Myzus persicae (green peach aphid) in Brassica oleracea leaf disc treated with 1 g/L rapeseed oil methylester after 3 days by leaf-dip bioassay; type: functional
Bemisia tabaci [7] = experiment: Resistance ratio, LC50 for second instar nymph of organophosphates-resistant Bemisia tabaci MEX03-02 (sweet potato whitefly) to LC50 for second instar nymph of Bemisia tabaci SUD-S; type: functional
Myzus persicae [8] = experiment: Resistance ratio, LC50 for third instar nymph of carbamates, pyrethroids-resistant Myzus persicae F04-01 (green peach aphid) to LC50 for third instar nymph of Myzus persicae NS; type: functional
Bemisia tabaci [9] = experiment: Resistance ratio, LC50 for second instar nymph of organophosphates-resistant Bemisia tabaci ESP-00 (sweet potato whitefly) to LC50 for second instar nymph of Bemisia tabaci SUD-S; type: functional
Bemisia tabaci [10] = experiment: Insecticidal activity against second instar nymph of organophosphates, pyrethroids, buprofezin, pyriproxyfen and pymetrozin-resistant Bemisia tabaci BR-JM03 (sweet potato whitefly) in cotton plant leaf after 10 days by leaf-dip bioassay; type: functional; conditions: BR-JM03, 240 h
Myzus persicae [11] = experiment: Insecticidal activity against Myzus persicae (green peach aphid) infected first leaf of cabbage plant assessed as phloem-systemic efficacy at 4 ug/plant treated with 2 g/L rapeseed oil methylester measured after 7 days on 3rd leaf by phloem mobility bioassay; type: functional
Bemisia tabaci [12] = experiment: Resistance ratio, LC50 for second instar nymph of organophosphates, pyrethroids, buprofezin, pyriproxyfen and pymetrozin-resistant Bemisia tabaci BR-JM03 (sweet potato whitefly) to LC50 for second instar nymph of Bemisia tabaci SUD-S; type: functional
Bemisia tabaci [13] = experiment: Resistance ratio, LC50 for second instar nymph of organophosphates-resistant Bemisia tabaci CRE04-01 (sweet potato whitefly) to LC50 for second instar nymph of Bemisia tabaci SUD-S; type: functional
Bemisia tabaci [14] = experiment: Resistance ratio, LC50 for second instar nymph of organophosphates-resistant Bemisia tabaci ISR-02 (sweet potato whitefly) to LC50 for second instar nymph of Bemisia tabaci SUD-S; type: functional
Myzus persicae [15] = experiment: Insecticidal activity against Myzus persicae (green peach aphid) infected first leaf of cabbage plant assessed as phloem-systemic efficacy at 0.8 ug/plant treated with 2 g/L rapeseed oil methylester measured after 7 days on 3rd leaf by phloem mobility bioassay; type: functional
Myzus persicae [16] = experiment: Insecticidal activity against third-instar nymph of carbamates, pyrethroids-resistant Myzus persicae JR (green peach aphid) in Brassica oleracea leaf disc after 3 days by leaf-dip bioassay; type: functional; conditions: foliar, 72 h
Myzus persicae [17] = experiment: Insecticidal activity against Myzus persicae (green peach aphid) infected first leaf of cabbage plant assessed as phloem-systemic efficacy at 0.16 ug/plant treated with 2 g/L rapeseed oil methylester measured after 7 days on 3rd leaf by phloem mobility bioassay; type: functional
Bemisia tabaci [18] = experiment: Insecticidal activity against second instar nymph of organophosphates-resistant Bemisia tabaci MEX03-02 (sweet potato whitefly) in cotton plant leaf after 10 days by leaf-dip bioassay; type: functional; conditions: MEX03-02, 240 h
Myzus persicae [19] = experiment: Insecticidal activity against Myzus persicae (green peach aphid) infected first leaf of cabbage plant assessed as phloem-systemic efficacy at 20 ug/plant treated with 2 g/L rapeseed oil methylester measured after 7 days on 3rd leaf by phloem mobility bioassay; type: functional
Myzus persicae [20] = experiment: Insecticidal activity against Myzus persicae (green peach aphid) infected first leaf of cabbage plant assessed as phloem-systemic efficacy at 0.032 ug/plant treated with 2 g/L rapeseed oil methylester measured after 7 days on 3rd leaf by phloem mobility bioassay; type: functional
Myzus persicae [21] = experiment: Insecticidal activity against Myzus persicae (green peach aphid) infected first leaf of cabbage plant assessed as phloem-systemic efficacy at 100 ug/plant treated with 2 g/L rapeseed oil methylester measured after 7 days on 3rd leaf by phloem mobility bioassay; type: functional
Bemisia tabaci [22] = experiment: Insecticidal activity against second instar nymph of organophosphates-resistant Bemisia tabaci CRE04-01 (sweet potato whitefly) in cotton plant leaf after 10 days by leaf-dip bioassay; type: functional; conditions: CRE04-01, 240 h
[23] = Dissociation constant, pKa of the compound; type: physicochemical
Myzus persicae [24] = experiment: Insecticidal activity against third-instar nymph of Myzus persicae NS (green peach aphid) in Brassica oleracea leaf disc after 3 days by leaf-dip bioassay; type: functional; conditions: foliar, 72 h
Myzus persicae [25] = experiment: Resistance ratio, LC50 for third instar nymph of carbamates, pyrethroids-resistant Myzus persicae JR (green peach aphid) to LC50 for third instar nymph of Myzus persicae NS; type: functional
Myzus persicae [26] = experiment: Insecticidal activity against adult Myzus persicae (green peach aphid) in Brassica oleracea leaf disc treated with 1 g/L rapeseed oil methylester after 3 days by leaf-dip bioassay; type: functional

Question: For `CCOC(=O)OC1=C(c2cc(C)ccc2C)C(=O)N[C@]12CC[C@@H](OC)CC2` [SPIROTETRAMAT], which LC50 (Bemisia tabaci [1]) is on record?
Answer: 0.72 µg/mL (≈ 1.93 µM)

Question: What about the LC50 (Myzus persicae [2]) of the same compound?
Answer: 0.27 µg/mL (≈ 0.723 µM)

Question: What about the LC50 (Bemisia tabaci [3]) of the same compound?
Answer: 0.74 µg/mL (≈ 1.98 µM)

Question: And the LC50 (Bemisia tabaci [4])?
Answer: 0.26 µg/mL (≈ 0.696 µM)

Question: And the logP [5]?
Answer: 0.3

Question: What about the LC95 (Myzus persicae [6]) of the same compound?
Answer: 0.73 ppm

Question: And the RatioLC50 (Bemisia tabaci [7])?
Answer: 1.9

Question: And the RatioLC50 (Myzus persicae [8])?
Answer: 0.4

Question: And the RatioLC50 (Bemisia tabaci [9])?
Answer: 2.8

Question: What about the LC50 (Bemisia tabaci [10]) of the same compound?
Answer: 0.64 µg/mL (≈ 1.71 µM)

Question: And the Efficacy (Myzus persicae [11])?
Answer: 85.6%

Question: And the RatioLC50 (Bemisia tabaci [12])?
Answer: 2.5

Question: What about the RatioLC50 (Bemisia tabaci [13]) of the same compound?
Answer: 3.8

Question: What about the RatioLC50 (Bemisia tabaci [14]) of the same compound?
Answer: 2.8

Question: What about the Efficacy (Myzus persicae [15]) of the same compound?
Answer: 56.7%

Question: And the LC50 (Myzus persicae [16])?
Answer: 0.59 µg/mL (≈ 1.58 µM)

Question: What about the Efficacy (Myzus persicae [17]) of the same compound?
Answer: 22.5%

Question: What about the LC50 (Bemisia tabaci [18]) of the same compound?
Answer: 0.49 µg/mL (≈ 1.31 µM)

Question: What about the Efficacy (Myzus persicae [19]) of the same compound?
Answer: 100%

Question: What about the Efficacy (Myzus persicae [20]) of the same compound?
Answer: 8.8%

Question: And the Efficacy (Myzus persicae [21])?
Answer: 100%

Question: And the LC50 (Bemisia tabaci [22])?
Answer: 1 µg/mL (≈ 2.68 µM)

Question: What about the pKa [23] of the same compound?
Answer: 5.2

Question: What about the LC50 (Myzus persicae [24]) of the same compound?
Answer: 0.69 µg/mL (≈ 1.85 µM)

Question: And the RatioLC50 (Myzus persicae [25])?
Answer: 0.9

Question: And the LC95 (Myzus persicae [26])?
Answer: 22 ppm
